In BigSolDB 2.1:

CC(C)(C)NCC(O)c1ccc(O)c(CO)c1 (stereo not given)
solubility (mole fraction)
Settings | in acetone | in ethanol | in ethyl acetate | in isobutanol | in isopropanol | in methanol | in methyl acetate | in n-butanol | in n-propanol | in sec-butanol
283.15 K | 0.000146 | 0.00218 | 0.000185 | 0.00154 | 0.00185 | 0.00599 | 0.000377 | 0.00109 | 0.00212 | 0.00102
288.15 K | 0.000162 | 0.00228 | 0.000204 | 0.00172 | 0.00205 | 0.00671 | 0.00041 | 0.0012 | 0.00235 | 0.00115
293.15 K | 0.000185 | 0.00271 | 0.000231 | 0.00192 | 0.00244 | 0.00745 | 0.000441 | 0.00134 | 0.00267 | 0.00131
298.15 K | 0.000211 | 0.00323 | 0.000261 | 0.00217 | 0.00278 | 0.00824 | 0.000471 | 0.00151 | 0.00317 | 0.00145
303.15 K | 0.000237 | 0.00412 | 0.00029 | 0.00243 | 0.00331 | 0.00909 | 0.000509 | 0.00168 | 0.0036 | 0.00163
308.15 K | 0.000271 | 0.0049 | 0.000323 | 0.00272 | 0.00382 | 0.0101 | 0.000545 | 0.00187 | 0.00413 | 0.00182
313.15 K | 0.000302 | 0.00585 | 0.000363 | 0.00304 | 0.00441 | 0.0112 | 0.00059 | 0.00211 | 0.00479 | 0.00202
318.15 K | 0.000346 | 0.00709 | 0.000399 | 0.00343 | 0.00512 | 0.0124 | 0.000631 | 0.00233 | 0.00552 | 0.00227
323.15 K | 0.000396 | 0.00846 | 0.000452 | 0.00385 | 0.00597 | 0.0137 | 0.000682 | 0.00262 | 0.00634 | 0.00252
328.15 K | 0.000451 | 0.0103 | 0.000501 | 0.00432 | 0.00698 | 0.0152 | 0.000735 | 0.00292 | 0.00743 | 0.00286
